Results taken from patent publication US20240336654A1, “ANTIMICROBIAL PEPTIDOMIMETICS” (SPEXIS AG, priority 2021, published 2024).
Where a SMILES comes first, the peptide text is derived from it. Bridges are numbered along the chain shown (N, C = ends). [ ]: non-standard residue; d: D form. Hyp = O=C(O)[C@@H]1C[C@@H](O)CN1; Pen = CC(C)(S)[C@H](N)C(=O)O; dDab = NCC[C@@H](N)C(=O)O; Dab = NCC[C@H](N)C(=O)O

Columns and labels:
Assay type in all cases: cell-based
[1] = test system: Escherichia coli ATCC 25922; conditions: ATCC 25922
Method: (§1) Lyophilized peptides were weighed on a Microbalance (Mettler MT5) and dissolved in sterile water to a final concentration of 1 mg/mL. Stock solutions were kept at +4° C., light protected.
(§2) The selective antimicrobial activities of the peptides were determined in 96-well plates (Greiner, polystyrene) by the standard CLSI broth microdilution method (Clinical and Laboratory Standards Institute. Methods for Dilution Antimicrobial Susceptibility Tests for Bacteria That Grow Aerobically; Approved Standard-Ninth Edition. CLSI document M07-A9 (ISBN 1-56238-783-9 [Print]; ISBN 1-56238-784-7 [Electronic]). Clinical and Laboratory Standards Institute, 950 West Valley Road, Suite 2500, Wayne, Pennsylvania 19087, USA, 2012) with slight modifications.
(§3) Colonies of the microorganisms were diluted in saline (0.85%, NaCl) and adjusted using a McFarland reader (bioMérieux SA, Marcy-l'Etoile, France) to 0.5 McFarland standard. Subsequently, the bacterial suspension was diluted in Mueller-Hinton II (MHII, cation adjusted) broth to give approximately 5×10^5 colony forming units (CFU/mL).
(§4) Inocula of the microorganisms were diluted into Mueller-Hinton II (MH, cation adjusted) broth and compared with a 0.5 McFarland standard to give appr. 10^6 colony forming units (CFU)/mL. Aliquots (90 μl) of inoculate were added to 10 μl of water+P-80 (Polysorbate 80, 0.002% final concentration) containing the peptide in serial two-fold dilutions at 10 fold final concentration. The following microorganisms were used to determine antibiotic selectivity of the peptides: Escherichia coli ATCC 25922, Escherichia coli MCR-1 Af 45 and Klebsiella pneumoniae SSI3010. Antimicrobial activities of the peptides were expressed as the minimal inhibitory concentration (MIC) in μg/mL at which no visible growth was observed after 18-20 hours of incubation at 35° C.

[2] = test system: Klebsiella pneumoniae SSI3010; conditions: SSI3010
Method: as §1, §2, §3, §4

[3] = test system: Escherichia coli MCR-1 Af 45; conditions: MCR-1 Af 45
Method: as §1, §2, §3, §4

[4] = test system: human red blood cells (hRBC); conditions: red cells of human, 1 h, 200 μg/mL
Method: Lyophilized peptides were weighed on a Microbalance (Mettler MT5) and dissolved in sterile water to a final concentration of 1 mg/mL. Stock solutions were kept at +4° C., light protected. The peptides were tested for their hemolytic activity against human red blood cells (hRBC). Fresh hRBC were washed three times with phosphate buffered saline (PBS) and centrifuged for 5 min at 3000×g. Compounds (200 μg/mL) were incubated with 20% hRBC (v/v) for 1 h at 37° C. and shaking at 300 rpm. A value of 0% and 100% cell lyses, respectively, was determined by incubation of hRBC in the presence of PBS and 2.5% Triton X-100 in H2O, respectively. The samples were centrifuged, the supernatants were 8-fold diluted in PBS buffer and the optical densities (OD) were measured at 540 nm. The 100% lyses value (OD540H2O) gave an OD540 of approximately 0.5-1.0. Percent hemolysis was calculated as follows: (OD540peptide/OD540H2O)×100%.

Row | Compound | Escherichia coli ATCC 25922 MIC [1] | Klebsiella pneumoniae SSI3010 MIC [2] | Escherichia coli MCR-1 Af45 MIC [3] | Hemolysis at 0.2 g/L [4]
1 | CC[C@H](C)[C@H](NC(=O)[C@@H]1C[C@@H](O)CN1C(=O)[C@@H](N)C(C)C)C(=O)N[C@@H]1C(=O)N[C@@H](Cc2ccc(O)cc2)C(=O)N[C@@H]([C@@H](C)O)C(=O)N[C@@H](CC(N)=O)C(=O)N[C@@H](CCCNC(=N)N)C(=O)N[C@@H](CCN)C(=O)N[C@@H](CC(N)=O)C(=O)N[C@H](CCN)C(=O)N[C@@H](CCCCN)C(=O)N[C@@H](CCN)C(=O)N[C@@H](CCN)C(=O)N[C@H](C(=O)N[C@@H](Cc2ccc(O)cc2)C(=O)O)CSSC1(C)C [Example 19, Val-Hyp-Ile-Pen-Tyr-Thr-Asn-Arg-Dab-Asn-^DDab-Lys-Dab-Dab-Cys-Tyr] (H-V[Hyp]I[Pen]YTNR[Dab]N[dDab]K[Dab][Dab]CY-OH; disulfide 4-15) | 0.125 µg/mL | 0.25 µg/mL | 0.125 µg/mL | <1%
2 | CC[C@H](C)[C@H](NC(=O)[C@@H]1C[C@@H](O)CN1C(=O)[C@@H](N)C(C)C)C(=O)N[C@@H]1C(=O)N[C@@H](Cc2ccc(O)cc2)C(=O)N[C@@H](CO)C(=O)N[C@@H](C)C(=O)N[C@@H](CCCNC(=N)N)C(=O)N[C@@H](CCN)C(=O)N[C@@H]([C@@H](C)O)C(=O)N[C@H](CCN)C(=O)N[C@@H](CCCCN)C(=O)N[C@@H](CCN)C(=O)N[C@@H](CCN)C(=O)N[C@H](C(=O)N[C@@H](Cc2ccc(O)cc2)C(=O)O)CSSC1(C)C [Example 20, Val-Hyp-Ile-Pen-Tyr-Ser-Ala-Arg-Dab-Thr-^DDab-Lys-Dab-Dab-Cys-Tyr] (H-V[Hyp]I[Pen]YSAR[Dab]T[dDab]K[Dab][Dab]CY-OH; disulfide 4-15) | 0.5 µg/mL | 1 µg/mL | 0.5 µg/mL | <1%
3 | CC[C@H](C)[C@@H]1NC(=O)[C@H](CO)NC(=O)[C@H](Cc2ccc(O)cc2)NC(=O)[C@@H](NC(=O)[C@@H](NC(=O)[C@@H]2C[C@@H](O)CN2C(=O)[C@@H](N)C(C)C)[C@@H](C)CC)C(C)(C)SSC[C@@H](C(=O)N[C@@H](Cc2ccc(O)cc2)C(=O)O)NC(=O)[C@H](CCN)NC(=O)[C@H](CCN)NC(=O)[C@H](CCCCN)NC(=O)[C@@H](CCN)NC(=O)[C@H]([C@@H](C)O)NC(=O)[C@H](CCN)NC(=O)[C@H](CCCNC(=N)N)NC1=O [Example 21, Val-Hyp-Ile-Pen-Tyr-Ser-Ile-Arg-Dab-Thr-^DDab-Lys-Dab-Dab-Cys-Tyr] (H-V[Hyp]I[Pen]YSIR[Dab]T[dDab]K[Dab][Dab]CY-OH; disulfide 4-15) | 0.0625 µg/mL | 0.125 µg/mL | 0.0625 µg/mL | <1%
4 | CC[C@H](C)[C@H](NC(=O)[C@@H]1C[C@@H](O)CN1C(=O)[C@@H](N)C(C)C)C(=O)N[C@@H]1C(=O)N[C@@H](Cc2ccc(O)cc2)C(=O)N[C@@H](CO)C(=O)N[C@@H](CCC(=O)O)C(=O)N[C@@H](CCCNC(=N)N)C(=O)N[C@@H](CCN)C(=O)N[C@@H]([C@@H](C)O)C(=O)N[C@H](CCN)C(=O)N[C@@H](CCCCN)C(=O)N[C@@H](CCN)C(=O)N[C@@H](CCN)C(=O)N[C@H](C(=O)N[C@@H](Cc2ccc(O)cc2)C(=O)O)CSSC1(C)C [Example 22, Val-Hyp-Ile-Pen-Tyr-Ser-Glu-Arg-Dab-Thr-^DDab-Lys-Dab-Dab-Cys-Tyr] (H-V[Hyp]I[Pen]YSER[Dab]T[dDab]K[Dab][Dab]CY-OH; disulfide 4-15) | 0.5 µg/mL | 0.5 µg/mL | 0.25 µg/mL | <1%

Second part, led by results:

Row | Escherichia coli ATCC 25922 MIC [1] | Klebsiella pneumoniae SSI3010 MIC [2] | Escherichia coli MCR-1 Af45 MIC [3] | Compound | Hemolysis at 0.2 g/L [4]
5 | 0.5 µg/mL | 0.5 µg/mL | 0.25 µg/mL | CC[C@H](C)[C@H](NC(=O)[C@@H]1C[C@@H](O)CN1C(=O)[C@@H](N)C(C)C)C(=O)N[C@@H]1C(=O)N[C@@H](Cc2ccc(O)cc2)C(=O)N[C@@H](CO)C(=O)N[C@@H](CC(=O)O)C(=O)N[C@@H](CCCNC(=N)N)C(=O)N[C@@H](CCN)C(=O)N[C@@H]([C@@H](C)O)C(=O)N[C@H](CCN)C(=O)N[C@@H](CCCCN)C(=O)N[C@@H](CCN)C(=O)N[C@@H](CCN)C(=O)N[C@H](C(=O)N[C@@H](Cc2ccc(O)cc2)C(=O)O)CSSC1(C)C [Example 23, Val-Hyp-Ile-Pen-Tyr-Ser-Asp-Arg-Dab-Thr-^DDab-Lys-Dab-Dab-Cys-Tyr] (H-V[Hyp]I[Pen]YSDR[Dab]T[dDab]K[Dab][Dab]CY-OH; disulfide 4-15; N-terminus assumed) | <1%
6 | 0.125 µg/mL | 0.25 µg/mL | 0.125 µg/mL | CC[C@H](C)[C@H](NC(=O)[C@@H]1C[C@@H](O)CN1C(=O)[C@@H](N)C(C)C)C(=O)N[C@@H]1C(=O)N[C@@H](Cc2ccc(O)cc2)C(=O)N[C@@H](CO)C(=O)N[C@@H](CO)C(=O)N[C@@H](CCCNC(=N)N)C(=O)N[C@@H](CCN)C(=O)N[C@@H]([C@@H](C)O)C(=O)N[C@H](CCN)C(=O)N[C@@H](CCCCN)C(=O)N[C@@H](CCN)C(=O)N[C@@H](CCN)C(=O)N[C@H](C(=O)N[C@@H](Cc2ccc(O)cc2)C(=O)O)CSSC1(C)C [Example 24, Val-Hyp-Ile-Pen-Tyr-Ser-Ser-Arg-Dab-Thr-^DDab-Lys-Dab-Dab-Cys-Tyr] (H-V[Hyp]I[Pen]YSSR[Dab]T[dDab]K[Dab][Dab]CY-OH; disulfide 4-15) | <1%
7 | 0.5 µg/mL | 1 µg/mL | 0.5 µg/mL | CC[C@H](C)[C@H](NC(=O)[C@@H]1C[C@@H](O)CN1C(=O)[C@@H](N)C(C)C)C(=O)N[C@@H]1C(=O)N[C@@H](Cc2ccc(O)cc2)C(=O)N[C@@H](CO)C(=O)N[C@@H](CC(N)=O)C(=O)N[C@@H](CCCNC(=N)N)C(=O)N[C@@H](C)C(=O)N[C@@H]([C@@H](C)O)C(=O)N[C@H](CCN)C(=O)N[C@@H](CCCCN)C(=O)N[C@@H](CCN)C(=O)N[C@@H](CCN)C(=O)N[C@H](C(=O)N[C@@H](Cc2ccc(O)cc2)C(=O)O)CSSC1(C)C [Example 25, Val-Hyp-Ile-Pen-Tyr-Ser-Asn-Arg-Ala-Thr-^DDab-Lys-Dab-Dab-Cys-Tyr] (H-V[Hyp]I[Pen]YSNRAT[dDab]K[Dab][Dab]CY-OH; disulfide 4-15) | <1%
8 | 0.25 µg/mL | 0.5 µg/mL | 0.125 µg/mL | CC[C@H](C)[C@H](NC(=O)[C@@H]1C[C@@H](O)CN1C(=O)[C@@H](N)C(C)C)C(=O)N[C@@H]1C(=O)N[C@@H](Cc2ccc(O)cc2)C(=O)N[C@@H](CO)C(=O)N[C@@H](CC(N)=O)C(=O)N[C@@H](CCCNC(=N)N)C(=O)N[C@H](CCN)C(=O)N[C@@H]([C@@H](C)O)C(=O)N[C@H](CCN)C(=O)N[C@@H](CCCCN)C(=O)N[C@@H](CCN)C(=O)N[C@@H](CCN)C(=O)N[C@H](C(=O)N[C@@H](Cc2ccc(O)cc2)C(=O)O)CSSC1(C)C [Example 26, Val-Hyp-Ile-Pen-Tyr-Ser-Asn-Arg-^DDab-Thr-^DDab-Lys-Dab-Dab-Cys-Tyr] (H-V[Hyp]I[Pen]YSNR[dDab]T[dDab]K[Dab][Dab]CY-OH; disulfide 4-15) | <1%
